From patent US20230416205A1, “COMPOUNDS, COMPOSITIONS, AND METHODS” (Denali Therapeutics Inc, priority 2020, published 2023)
pIC50: −log10 of the molar value. Where two headings read alike, the source gives them in different places.

Test system: NLRP3
Test: IL-1β secretion assay in PMA-differentiated, LPS/nigericin-stimulated THP-1 cells (384-well, ELISA read-out)
Assay type: cell-based, human
Experimental: Compounds as provided herein were tested in the following assay. Cell culture medium employed contained RPMI 1640 medium (89%), FBS (10%), Pen/Strep (1%), and 2-mercaptoethanol (0.05 mM). Freezing medium was made up of 90% FBS and 10% DMSO. THP-1 cells were removed from the liquid nitrogen and placed into a 37° C. water bath to thaw, until signs of ice dissipated. The cells were then added to 9 mL of warm cell culture medium and centrifuged for 5 minutes at 1000 rpm. The supernatant was discarded, and the cells were resuspended in new cell culture medium. THP-1 cells were then split and cultured in the cell culture medium, being passaged every 2-3 days with the cell density will be maintained between 5×10^5 and 1.5×10^6 viable cells/mL.
To freeze, cells were resuspended with fresh freezing medium, adjusting the cell density to 5×10^6 cells/mL. The cell suspension was partitioned into 1 mL aliquots per vial, and the vials were transferred to a −80° C. freezer. After one day at −80° C., the cell vials were transferred to liquid nitrogen freezer for storage.
PMA was dissolved in DMSO to make a stock solution at 5 mg/mL and stored in 10 μl aliquots at −20° C. for single use. PMA is added to normal growth medium. LPS was diluted with 1 mL of water solution to provide a 1 mg/mL stock solution and stored in 15 μl aliquots at −20° C. for single use. Nigericin is diluted in ice cold 100% ethanol to 5 mg/mL (6.7 mM) and stored in 75 μL aliquots at −20° C. for single use. Serum-free media contains RPMI 1640 medium (99%), Pen/Strep (1%), and 2-mercaptoethanol (0.05 mM). The two control conditions used to qualify and normalize test compound dose-response curves were as follows: High Control=25 ng/mL LPS, 5 μM Nigericin, 0.5% DMSO, Low Control=25 ng/mL, LPS, 0.5% DMSO.
THP-1 cells were diluted to provide a suspension at a concentration of 1.0×10^6 cells/mL with the total volume of suspension required to enable the desired number of assay plates. The growth media was supplemented with PMA (5 ng/mL final concentration) and the cells were incubated at 37° C. under a humidified atmosphere of 5% CO2 for 40 h.
All media was carefully aspirated from each culture flask. The cells were washed carefully with 1×DPBS. The cells were then briefly digested with trypsin LE for 5 minutes at 23° C., and immediately resuspended in cell growth media. After resuspension, the cells were centrifuged at 1000 rpm for 3 minutes and the supernatant was discarded. The cells were resuspended in DPBS and once again centrifuged at 1000 rpm for 5 minutes. The supernatant was discarded and the cell pellet was resuspended in serum-free media supplemented with LPS (25 ng/mL final concentration) to enable the distribution of 30K THP-1 cells within 45 μL of media into each well of 384-well PDL-coated plates. The 384-well plates were then incubated at 37° C. under a humidified atmosphere of 5% CO2 for 2 h. Following this period, test compounds were dispensed by Tecan across the desired concentration range with all wells normalized to a final 0.5% DMSO concentration. The plates were then incubated at 37° C. under a humidified atmosphere of 5% CO2 for 1 h. Following this period, 5 μL of the […] was added to each of the appropriate wells and plates were centrifuged at 1000 rpm for 30 seconds. The plates were the immediately reintroduced to the incubator at 37° C. under a humidified atmosphere of 5% CO2 for 2 h. After this time, 35 μL/well of supernatant was collected and transferred into v-bottom plate and centrifuged at 1000 rpm for 1 minute. These supernatant aliquots were analyzed using an IL-Iβ detection kit as described below. If needed, the test samples could be snap frozen and stored at −80° C. until analyzed.
To prepare each ELISA plate, capture antibody (mAb Mt175) was diluted with PBS to a final concentration of 2 μg/mL and then 20 μL of this solution was added to each well of the ELISA plate. Each plate was allowed to incubate overnight at 4° C.

[1] = Homo sapiens, THP-1, IL-1β secretion, PMA-differentiated THP-1 cells, LPS then nigericin stimulation, ELISA read at 450 nm, read-out: Activity
[2] = Homo sapiens, THP-1, Table 4, IL-1β secretion, LPS/nigericin-stimulated THP-1 cells, read-out: IC50
[3] = IL-1β secretion, PMA-differentiated THP-1 cells, LPS then nigericin stimulation, ELISA read at 450 nm, read-out: Activity
[4] = Table 4, IL-1β secretion, LPS/nigericin-stimulated THP-1 cells, read-out: IC50

Structure (SMILES) | pIC50 [1] | pIC50 [2] | further results
O=C(CN1CC2(CC2)c2cc(Br)ccc2C1=O)NC1CN2CCC1CC2 (centres unmarked) [Example 372, N-(1-azabicyclo[2.2.2]octan-3-yl)-2-(6-bromo-1-oxospiro[3H-isoquinoline-4,1′-cyclopropane]-2-yl)acetamide] |  |  | pIC50 (Homo sapiens, THP-1): 4.65
O=C(CN1CC2(CC2)c2cc(Br)ccc2C1=O)NC1CCC(F)(F)CC1 [Example 15, 2-(6-bromo-1-oxospiro[3H-isoquinoline-4,1′-cyclopropane]-2-yl)-N-(4,4-difluorocyclohexyl)acetamide] | > 5.00 | 5.50 | 
Cc1nc(NC(=O)CN2CC3(CC3)c3cc(Br)ccc3C2=O)nn1C [Example 376, 2-(6-bromo-1-oxospiro[3H-isoquinoline-4,1′-cyclopropane]-2-yl)-N-(1,5-dimethyl-1,2,4-triazol-3-yl)acetamide] |  | 5.74 | 
Cn1cc(N2CCCC(NC(=O)CN3CC4(CC4)c4cc(Br)ccc4C3=O)C2)cn1 (centres unmarked) [Example 417, 2-(6-bromo-1-oxospiro[3H-isoquinoline-4,1′-cyclopropane]-2-yl)-N-[1-(1-methylpyrazol-4-yl)piperidin-3-yl]acetamide] |  | 4.93 | 
O=C(CN1C[C@]2(C[C@H]2F)c2cc(Br)ccc2C1=O)Nc1ncc(Cl)cn1 [Example 110] | > 5.00 | 7.92 | 
O=C(CN1CC2(CC2)c2cc(C(F)(F)F)ccc2C1=O)Nc1ncc(F)cn1 [Example 28] | > 5.00 | 6.43 | 
O=C(CN1C[C@@]2(C[C@@H]2F)c2cc(C(F)(F)F)ccc2C1=O)Nc1ncc(C(F)(F)F)cn1 (single isomer, unassigned) [Example 243, 2-[(2′s,4r)-2′-fluoro-1-oxo-6-(trifluoromethyl)spiro[3H-isoquinoline-4,1′-cyclopropane]-2-yl]-N-[5-(trifluoromethyl)pyrimidin-2-yl]acetamide] |  |  | pIC50 [3]: > 5.00; pIC50 [4]: 7.02
O=C(CN1C[C@@]2(C[C@H]2F)c2cc(Br)ccc2C1=O)Nc1ncc(F)cn1 (mixture of isomers) [Example 80, 2-[(2′r,4r)-6-bromo-2′-fluoro-1-oxospiro[3H-isoquinoline-4,1′-cyclopropane]-2-yl]-N-(5-fluoropyrimidin-2-yl)acetamide] | > 5.00 | 5.97 | 
CC(C)(O)C1CC(NC(=O)CN2CC3(CC3)c3cc(Br)ccc3C2=O)C1 (centres unmarked) [Example 50, 2-(6-bromo-1-oxospiro[3H-isoquinoline-4,1′-cyclopropane]-2-yl)-N-[3-(2-hydroxypropan-2-yl)cyclobutyl]acetamide] | > 5.00 | 5.19 | 
O=C(CN1CC2(CC2)c2cc(Br)ccc2C1=O)NC1CCOC(C2CC2)C1 (centres unmarked) [Example 24, 2-(6-bromo-1-oxo-spiro[3H-isoquinoline-4,1′-cyclopropane]-2-yl)-N-(2-cyclopropyltetrahydropyran-4-yl)acetamide] | > 5.00 | 5.14 | 
CCN1CC(NC(=O)CN2CC3(CC3)c3cc(Br)ccc3C2=O)CCC1=O (centres unmarked) [Example 62, 2-(6-bromo-1-oxo-spiro[3H-isoquinoline-4,1′-cyclopropane]-2-yl)-N-(1-ethyl-6-oxo-3-piperidyl)acetamide] | 4.82 to 5.00 | 4.92 | 
O=C(CN1CC2(CC2)c2cc(Br)ccc2C1=O)NC1CCN(CC(F)F)CC1 [Example 367, 2-(6-bromo-1-oxospiro[3H-isoquinoline-4,1′-cyclopropane]-2-yl)-N-[1-(2,2-difluoroethyl)piperidin-4-yl]acetamide] |  | 4.93 | 
CCc1ccc2c(c1)C1(CC1)CN(CC(=O)Nc1ncc(F)cn1)C2=O [Example 314, 2-(6-ethyl-1-oxospiro[3H-isoquinoline-4,1′-cyclopropane]-2-yl)-N-(5-fluoropyrimidin-2-yl)acetamide] |  | 6.11 | 
O=C(CN1CC2(CC2)c2cc(Br)ccc2C1=O)Nc1ncc(C2CC2)cn1 [Example 194, 2-(6-bromo-1-oxospiro[3H-isoquinoline-4,1′-cyclopropane]-2-yl)-N-(5-cyclopropylpyrimidin-2-yl)acetamide] | > 5.00 | 6.41 | 
O=C(CN1CC2(CC2)c2cc(Br)ccc2C1=O)Nc1ncc(F)cc1F [Example 38, 2-(6-bromo-1-oxo-spiro[3H-isoquinoline-4,1′-cyclopropane]-2-yl)-N-(3,5-difluoro-2-pyridyl)acetamide] |  |  | pIC50 [3]: > 5.00; pIC50 [4]: 6.35
O=C(CN1CC2(CC2)c2cc(Br)ccc2C1=O)Nc1nc2c(o1)CCCC2 [Example 386, 2-(6-bromo-1-oxospiro[3H-isoquinoline-4,1′-cyclopropane]-2-yl)-N-(4,5,6,7-tetrahydro-1,3-benzoxazol-2-yl)acetamide] |  | 5.84 | 
O=C(CN1CC2(CC23CC3)c2cc(Br)ccc2C1=O)Nc1ncc(F)cn1 (centres unmarked) [Example 81, N-(5-fluoropyrimidin-2-yl)-2-(6-bromo-1-oxospiro[3H-isoquinoline-4,1′-(spiro[2.2]pentan-1-yl)]-2-yl)acetamide] | > 5.00 | 5.59 | 
N#C[C@H]1C[C@@]12CN(CC(=O)Nc1ncc(F)cn1)C(=O)c1ccc(Br)cc12 (single isomer, unassigned) [Example 286, 2-[(2′s,4r)-6-bromo-2′-cyano-1-oxospiro[3H-isoquinoline-4,1′-cyclopropane]-2-yl]-N-(5-fluoropyrimidin-2-yl)acetamide] | > 5.00 |  | pIC50 [4]: 5.71
Cn1ncc2nc(NC(=O)CN3CC4(CC4)c4cc(Br)ccc4C3=O)ccc21 [Example 189, 2-(6-bromo-1-oxospiro[3H-isoquinoline-4,1′-cyclopropane]-2-yl)-N-(1-methylpyrazolo[4,3-b]pyridin-5-yl)acetamide] | > 5.00 | 5.42 | 
O=C(CN1CC2(CC2)c2cc(Br)ccc2C1=O)NC1CCN(c2cccnc2)CC1 [Example 369, 2-(6-bromo-1-oxospiro[3H-isoquinoline-4,1′-cyclopropane]-2-yl)-N-(1-pyridin-3-ylpiperidin-4-yl)acetamide] |  | 5.19 | 
O=C(CN1CC2(CC2)c2cc(Br)ccc2C1=O)Nc1nc2ccccn2n1 [Example 181] | > 5.00 | 6.84 | 
COc1ccc(NC(=O)CN2CC3(CC3)c3cc(Br)ccc3C2=O)cn1 [Example 418, 2-(6-bromo-1-oxospiro[3H-isoquinoline-4,1′-cyclopropane]-2-yl)-N-(6-methoxypyridin-3-yl)acetamide] |  | 5.46 | 
O=C(CN1C[C@]2(C[C@H]2F)c2cc(C3CC3)ccc2C1=O)Nc1ncc(Cl)cn1 [Example 232] | > 5.00 | 7.55 | 
O=C(CN1CC2(CC2)c2cc(Br)ccc2C1=O)NC1CCN(CCC(F)(F)F)CC1 [Example 366, 2-(6-bromo-1-oxospiro[3H-isoquinoline-4,1′-cyclopropane]-2-yl)-N-[1-(3,3,3-trifluoropropyl)piperidin-4-yl]acetamide] |  | 4.72 | 
Cc1cnc(NC(=O)CN2C[C@@]3(C[C@@H]3F)c3c(ccc(Br)c3F)C2=O)nc1 (single isomer, unassigned) [Example 225, 2-[(2′s,4r)-6-bromo-2′,5-difluoro-1-oxospiro[3H-isoquinoline-4,1′-cyclopropane]-2-yl]-N-(5-methylpyrimidin-2-yl)acetamide] | > 5.00 | 7.72 | 
